Assay [1] deals with T1, Recombinant STAT3 protein (STAT3 (G127-I722)) (Homo sapiens, UniProt P40763).
T1 construct: Recombinant STAT3 protein (STAT3 (G127-I722))
The assay is described as follows: STAT3 Fluorescence Polarization (FP) Assay. Format: binding. The conditions noted are these: STAT3 (G127-I722) 25 nM, probe 5-FAM-GpYLPQTV-NH2 2 nM, 45-minute incubation; read-out: STAT3 (FP assay IC50 class). The gist of the method:
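Displacement of a 2 nM 5-FAM-labelled pY peptide (GpYLPQTV) from 25 nM recombinant STAT3 (G127-I722) was monitored by fluorescence polarization. Incubation lasted 45 min at room temperature in pH 7.4 HEPES buffer containing 1% DMSO.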

For assay [2], the target named is T2, Recombinant STAT6 protein (STAT6 (W123-T658)) (Homo sapiens, UniProt P42226).
T2 construct: Recombinant STAT6 protein (STAT6 (W123-T658))
T2 sequence (P42226 123-658): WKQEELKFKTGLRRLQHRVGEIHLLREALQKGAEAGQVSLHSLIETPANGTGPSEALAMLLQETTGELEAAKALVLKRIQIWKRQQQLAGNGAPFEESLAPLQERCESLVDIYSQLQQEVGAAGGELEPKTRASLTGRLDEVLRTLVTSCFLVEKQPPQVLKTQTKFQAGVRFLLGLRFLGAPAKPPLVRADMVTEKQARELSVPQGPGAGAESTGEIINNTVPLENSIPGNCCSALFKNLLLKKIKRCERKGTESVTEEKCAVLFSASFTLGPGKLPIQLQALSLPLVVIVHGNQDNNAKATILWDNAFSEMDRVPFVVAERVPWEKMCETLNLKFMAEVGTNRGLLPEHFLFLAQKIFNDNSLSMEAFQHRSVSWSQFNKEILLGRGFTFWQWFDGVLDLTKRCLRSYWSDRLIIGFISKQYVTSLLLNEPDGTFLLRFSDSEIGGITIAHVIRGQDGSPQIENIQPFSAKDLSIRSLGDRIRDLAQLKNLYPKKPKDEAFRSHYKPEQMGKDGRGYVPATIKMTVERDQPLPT
The experiment in a line: STAT6 Fluorescence Polarization (FP) Assay. Type of assay: binding. Conditions: STAT6 (W123-T658) 250 nM, 45-minute incubation, read-out: STAT6 (FP assay IC50 class). The gist of the method: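 Fluorescence polarization (mP) read-out: 250 nM STAT6 (W123-T658) plus 2 nM 5-FAM phosphotyrosine peptide, 45 min, room temperature, 1% DMSO. IC50 by nonlinear fit of mP against log compound concentration.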

Setting [3] is: probe 5-FAM-ApYKPFQDLI-NH2 2 nM.

Read-outs that look alike come from different tables or passages of the source.

T1 sequence (P40763 127-722): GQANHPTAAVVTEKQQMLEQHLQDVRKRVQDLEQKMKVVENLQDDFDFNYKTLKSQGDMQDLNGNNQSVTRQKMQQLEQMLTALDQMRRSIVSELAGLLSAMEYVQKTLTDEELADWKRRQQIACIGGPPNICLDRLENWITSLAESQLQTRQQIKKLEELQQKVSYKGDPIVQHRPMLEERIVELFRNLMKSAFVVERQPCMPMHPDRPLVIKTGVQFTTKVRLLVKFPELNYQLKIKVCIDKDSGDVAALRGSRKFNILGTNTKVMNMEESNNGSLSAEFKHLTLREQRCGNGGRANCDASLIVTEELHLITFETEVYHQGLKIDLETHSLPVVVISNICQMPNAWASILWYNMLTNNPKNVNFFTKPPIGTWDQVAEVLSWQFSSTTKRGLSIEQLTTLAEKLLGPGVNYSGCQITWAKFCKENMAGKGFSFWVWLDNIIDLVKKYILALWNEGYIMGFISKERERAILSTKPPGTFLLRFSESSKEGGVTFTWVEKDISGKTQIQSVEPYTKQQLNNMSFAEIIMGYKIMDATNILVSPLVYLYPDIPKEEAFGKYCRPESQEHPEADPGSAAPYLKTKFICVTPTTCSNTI

For `Cc1nc2cc(CNC(=O)[C@@H]3CC[C@@H]4CCC[C@H](NC(=O)c5cc6cc(C(F)(F)P(=O)(O)O)ccc6s5)C(=O)N43)ccc2[nH]1` [Compound 1116, (difluoro(2-(((3S,6S,9aS)-3-(((2-methyl-1H-benzo[d]imidazol-5-yl)methyl)carbamoyl)-5-oxooctahydro-1H-pyrrolo[1,2-a]azepin-6-yl)carbamoyl)benzo[b]thiophen-5-yl)methyl)phosphonic acid], the IC50 was 0.1 to 1 µM in assay [1] and 3 to 30 µM in assay [2] (probe 5-FAM-Ap[…]-NH2 2 nM).
On to `O=C(N[C@H]1CCC[C@H]2CC[C@@H](C(=O)NCc3ccc4[nH]c(=O)[nH]c4c3)N2C1=O)c1cc2cc(C(F)(F)P(=O)(O)O)ccc2s1` [Compound 1117, (difluoro(2-(((3S,6S,9aS)-5-oxo-3-(((2-oxo-2,3-dihydro-1H-benzo[d]imidazol-5-yl)methyl)carbamoyl)octahydro-1H-pyrrolo[1,2-a]azepin-6-yl)carbamoyl)benzo[b]thiophen-5-yl)methyl)phosphonic acid], for which the IC50 in assay [1] lay within 0.1 to 1 µM; in assay [2] (probe 5-FAM-Ap[…]-NH2 2 nM), 0.3 to 3 µM.
In the same order, the values of `O=C(N[C@H]1CCC[C@H]2CC[C@@H](C(=O)NCc3cnc4[nH]cnc4c3)N2C1=O)c1cc2cc(C(F)(F)P(=O)(O)O)ccc2s1` [Compound 1118, ((2-(((3S,6S,9aS)-3-(((3H-imidazo[4,5-b]pyridin-6-yl)methyl)carbamoyl)-5-oxooctahydro-1H-pyrrolo[1,2-a]azepin-6-yl)carbamoyl)benzo[b]thiophen-5-yl)difluoromethyl)phosphonic acid] are below 0.1 µM and 0.3 to 3 µM.
Taken in the same sequence, the figures for `Cn1cnc2cc(CNC(=O)[C@@H]3CC[C@@H]4CCC[C@H](NC(=O)c5cc6cc(C(F)(F)P(=O)(O)O)ccc6s5)C(=O)N43)cnc21` [Compound 1119, (difluoro(2-(((3S,6S,9aS)-3-(((3-methyl-3H-imidazo[4,5-b]pyridin-6-yl)methyl)carbamoyl)-5-oxooctahydro-1H-pyrrolo[1,2-a]azepin-6-yl)carbamoyl)benzo[b]thiophen-5-yl)methyl)phosphonic acid] were 0.1 to 1 µM and 0.3 to 3 µM.
In the same order, the values of `Cn1cnc2ncc(CNC(=O)[C@@H]3CC[C@@H]4CCC[C@H](NC(=O)c5cc6cc(C(F)(F)P(=O)(O)O)ccc6s5)C(=O)N43)cc21` [Compound 1120, (difluoro(2-(((3S,6S,9aS)-3-(((1-methyl-1H-imidazo[4,5-b]pyridin-6-yl)methyl)carbamoyl)-5-oxooctahydro-1H-pyrrolo[1,2-a]azepin-6-yl)carbamoyl)benzo[b]thiophen-5-yl)methyl)phosphonic acid] are 0.1 to 1 µM and 0.3 to 3 µM.
Regarding `COCC(NC(=O)[C@@H]1CC[C@@H]2CCCC[C@H](NC(=O)c3cc4cc(C(F)(F)P(=O)(O)O)ccc4s3)C(=O)N21)c1c[nH]c2ncccc12` (stereo partly drawn) [Compound 1121, (difluoro(2-(((3S,6S,10aS)-3-((2-methoxy-1-(1H-pyrrolo[2,3-b]pyridin-3-yl)ethyl)carbamoyl)-5-oxodecahydropyrrolo[1,2-a]azocin-6-yl)carbamoyl)benzo[b]thiophen-5-yl)methyl)phosphonic acid], the values for the IC50 in assay [1] and in assay [2] (probe 5-FAM-Ap[…]-NH2 2 nM) were 1 to 10 µM and 3 to 30 µM, respectively.
On to `NC(=O)Cc1cc(-c2ccccc2)ccc1NC(=O)[C@@H]1CCC2CCC[C@H](NC(=O)c3cc4cc(C(F)(F)P(=O)(O)O)ccc4s3)C(=O)N21` (stereo partly drawn) [Compound 1122, ((2-(((35,6S)-3-((3-(2-amino-2-oxoethyl)-[1,1′-biphenyl]-4-yl)carbamoyl)-5-oxooctahydro-1H-pyrrolo[1,2-a]azepin-6-yl)carbamoyl)benzo[b]thiophen-5-yl)difluoromethyl)phosphonic acid], for which the figures for the IC50 in assay [1] and in assay [2] (probe 5-FAM-Ap[…]-NH2 2 nM) were 0.1 to 1 µM and 3 to 30 µM, respectively.
In the same order, the values of `Cn1cc(C2CN(C(=O)[C@@H]3CC[C@@H]4CCC[C@H](NC(=O)c5cc6cc(C(F)(F)P(=O)(O)O)ccc6s5)C(=O)N43)CCO2)cn1` (stereo partly drawn) [Compound 1123] are 1 to 10 µM and 0.3 to 3 µM.
`O=C(N[C@H]1CCC[C@H]2CC[C@@H](C(=O)N3CCOC(c4cccnc4)C3)N2C1=O)c1cc2cc(C(F)(F)P(=O)(O)O)ccc2s1` (stereo partly drawn) [Compound 1124, (difluoro(2-(((3S,6S,9aS)-5-oxo-3-(2-(pyridin-3-yl)morpholine-4-carbonyl)octahydro-1H-pyrrolo[1,2-a]azepin-6-yl)carbamoyl)benzo[b]thiophen-5-yl)methyl)phosphonic acid]: the figures for the IC50 in assay [1] and in assay [2] (probe 5-FAM-Ap[…]-NH2 2 nM) were 0.1 to 1 µM and at most 0.3 µM, respectively.
Taken in the same sequence, the figures for `O=C(N[C@H]1CCC[C@H]2CC[C@@H](C(=O)N3CCN(c4cccnc4)CC34CC4)N2C1=O)c1cc2cc(C(F)(F)P(=O)(O)O)ccc2s1` [Compound 1125, (difluoro(2-(((3S,6S,9aS)-5-oxo-3-(7-(pyridin-3-yl)-4,7-diazaspiro[2.5]octane-4-carbonyl)octahydro-1H-pyrrolo[1,2-a]azepin-6-yl)carbamoyl)benzo[b]thiophen-5-yl)methyl)phosphonic acid] were below 0.1 µM and 0.3 to 3 µM.
Taken in the same sequence, the figures for `Cn1cnnc1C1CN(C(=O)[C@@H]2CC[C@@H]3CCC[C@H](NC(=O)c4cc5cc(C(F)(F)P(=O)(O)O)ccc5s4)C(=O)N32)CCO1` (stereo partly drawn) [Compound 1126, (difluoro(2-(((3S,6S,9aS)-3-(2-(4-methyl-4H-1,2,4-triazol-3-yl)morpholine-4-carbonyl)-5-oxooctahydro-1H-pyrrolo[1,2-a]azepin-6-yl)carbamoyl)benzo[b]thiophen-5-yl)methyl)phosphonic acid] were 0.1 to 1 µM and 0.3 to 3 µM.
Taken in the same sequence, the figures for `Cc1nnc(C2CN(C(=O)[C@@H]3CC[C@@H]4CCC[C@H](NC(=O)c5cc6cc(C(F)(F)P(=O)(O)O)ccc6s5)C(=O)N43)CCO2)o1` (stereo partly drawn) [Compound 1127, (difluoro(2-(((3S,6S,9aS)-3-(2-(5-methyl-1,3,4-oxadiazol-2-yl)morpholine-4-carbonyl)-5-oxooctahydro-1H-pyrrolo[1,2-a]azepin-6-yl)carbamoyl)benzo[b]thiophen-5-yl)methyl)phosphonic acid] were 0.1 to 1 µM and 0.3 to 3 µM.
As for “((S)-(2- (((3S,6S,9aS)-3- ((6S,7R)-7-cyano-6- (pyridin-3-yl)-4- azaspiro[2.4] heptane-4- carbonyl)-5- oxooctahydro-1H- pyrrolo[1,2- a]azepin-6- yl)carbamoyl)benzo [b]thiophen-5- yl)fluoromethyl) phosphonic acid [Compound 838]”, the results for the IC50 in assay [1] and in assay [2] (setting [3]) were 1 to 10 µM and at most 0.3 µM, respectively.
Regarding “(difluoro(2- (((3S,6S,10aS)-3- ((1R,5S,6S)-6-(5- methyl-1,3,4- oxadiazol-2-yl)-3- azabicyclo[3.1.0] hexane-3- carbonyl)-5- oxodecahydropyrrolo [1,2-a]azocin-6- yl)carbamoyl)benzo [b]thiophen-5- yl)methyl)phosphon ic acid [Compound 804]”, the IC50 lay within 0.1 to 1 µM in assay [1] and 0.3 to 3 µM in assay [2] (setting [3]).
In the same order, the values of “(difluoro(2- (((3S,6S,10aS)-5- oxo-3-((1R,5S,6R)- 6-phenyl-3- azabicyclo[3.1.0] hexane-3- carbonyl)decahydro pyrrolo[1,2- a]azocin-6- yl)carbamoyl)benzo [b]thiophen-5- yl)methyl) phosphonic acid [Compound 805]” are 0.1 to 1 µM and 3 to 30 µM.

(Values after patent US20250215029A1 (Recludix Pharma, Inc., priority 2022, published 2025).)
